Key:
Type in all cases: cell-based
[1] = system: Human umbilical vein endothelial cell; assay: In Vitro Angiogenesis Assay (morphogenesis / tube formation on Matrigel); parameters: key to In Vitro Angiogenesis Assay Results (score of extent of cellular networks): Individual cells, well separated (+++++); Cells begin to migrate and align themselves (++++); Cells begin to line but not sprouting (+++); Visible Sprouting (++); Closed polygons begins to form (+); details: for In Vitro Angiogenesis Assay Results (score of extent of cellular networks): HUVECs 10^4 cells/well on ECMatrix, inhibitors 1 mM and 10 mM, 8 hours at 37° C., higher score = greater inhibition of angiogenesis
Protocol: In Vitro Angiogenesis Assay
Human umbilical vein endothelial cell was purchased from Cambrex Co. (East Rutherford, N.J.) and maintained in EGM (Endothelial Growth Medium) supplemented with 2% FBS, 0.1% EGF, 0.1% Hydrocortisone, 0.1% GA-1000 and 0.4% BBE.
The morphogenesis assay on Matrigel was performed according to the manufacturer's instructions (Chemicon International). The ECMatrix™ kit consists of laminin, collagen type IV, heparan sulfate, proteoglycans, entactin and nidogen. It also contains various growth factors (TGF-β, FGF) and proteolytic enzymes (plasminogen, tPA, MMPs) that are normally produced in EHS tumors. The incubation condition was optimized for maximal tube-formation as follows: 50 μl of EC Matrix™ was suitably diluted in the ratio 9:1 with 10×diluent buffer and used for coating the 96-well plate. The coated plates were incubated at 37° C. for 1 hr. to allow the Matrix solution to solidify. In the meantime the HUVECs that were cultured for 24 hours in EGM with 2% FBS was trypsinised and re-suspended in the growth media and the cells were counted. After 1 hr. pre-incubation of the plate with Matrix solution, the HUVECs were plated at 10^4 cells/well in the absence or in the presence of different VEGFR inhibitors (1 mM and 10 mM). After 8 hours incubation at 37° C., the cell three-dimensional organization (cellular network structures) was examined under an inverted photomicroscope. Each treatment was performed in triplicate.
Activated endothelial cells form cellular networks (mesh like structures) resembling capillary tubes sprouting into the stromal space. The formation of these cellular networks is a dynamic process, which started migration and alignment of cells followed by the development of capillary tubes like structures, sprouting of new branches and finally the formation of the cellular networks. Although this in vitro angiogenesis kit is designed only as a qualitative assay, we have made an attempt to quantitate the degree of angiogenesis using a scoring method. The scoring was based on the extent of the cellular networks that were observed as follows:
Individual cells, well separated (+++++)
Cells begin to migrate and align themselves (++++)
Cells begin to line but not sprouting (+++)
Closed polygons begins to form (+).
According to our qualitative assessment, the higher the scoring the greater the efficiency of the compound for inhibiting endothelial cell mediated angiogenesis.

[2] = system: MCF-7; assay: Cytotoxicity towards MCF-7 breast carcinoma cell line
[3] = system: GI-101A; assay: Cytotoxicity towards GI-101A breast carcinoma cell line

EC50 ([1]; Homo sapiens, estimated, in vitro angiogenesis assay, HUVEC, read-out: EC50 value for anti-antigenic effect)	Compound	In Vitro Angiogenesis Assay Results (score of extent of cellular networks) [1]	cytotoxicity towards MCF-7 [2]	cytotoxicity towards GI-101A [3]
	CCCCCCCCCCCCCCCCCCOc1ccc(C(=O)CC(=O)Nc2ccc(Oc3ccc(C(=O)O)cc3)c(C(=O)O)c2)cc1 [Example 6]	++		
	CCCCCCCCCCCCCCCCOc1ccc(C(NNS(=O)(=O)c2cccc(C(=O)O)c2)N2CCCCC2)cc1 (stereo not shown) [Example 2]	++++		
	CCCCCCCOc1ccc(/C=N\NC(=O)c2ccc(Br)cc2)cc1 [Example 4]	+++		
	CCCCCCCCCCOc1ccc(C(=O)N/N=C/c2ccc(OC)cc2)cc1 [Example 3]	++++		
250 nM	COc1ccc(NCC(O)Cn2cnc3c2c(=O)n(C)c(=O)n3C)cc1 (stereo not shown) [Example 1]	+++++	produced cytotoxicity	produced cytotoxicity
	CCCCCCCCCCCCCCCCCCOc1ccc(C(=O)CC(=O)Nc2ccc(Sc3cccc(C(=O)O)c3)c(C(=O)O)c2)cc1 [Example 5]	+++		
	CCC(CNCCO)Nc1nc2c(c(=O)n(C)c(=O)n2C)n1Cc1ccccc1 (stereo not shown) [Example 7]	++		

Reference: patent US7875603B2, “Specific inhibitors for vascular endothelial growth factor receptors” (Nova Southeastern University, priority 2006, dated 2011)
